This is an account of results in ChEMBL document CHEMBL1148156, “Chemical constituents of Millettia taiwaniana: structure elucidation of five new isoflavonoids and their cancer chemopreventive activity” (2004).

Common to all, as to type: functional
For test [1], the system named is Mus musculus. The test can be described thus: Inhibition of DMBA-induced/TPA-promoted carcinogenesis in ICR mouse assessed as mouse bearing papillomas at 85 nmol administered 1 hr before TPA treatment measured after 10 weeks. More on the design: scale not given: the % may be the effect or the level left.
The test system of test [2] is Mus musculus. The test can be described thus: Inhibition of DMBA-induced/TPA-promoted carcinogenesis in ICR mouse assessed as number of skin papillomas per mouse at 85 nmol administered 1 hr before TPA treatment measured after 20 weeks.
Test [3] relates to Mus musculus. The test can be described thus: Inhibition of DMBA-induced/TPA-promoted carcinogenesis in ICR mouse assessed as mouse bearing papillomas at 85 nmol administered 1 hr before TPA treatment measured after 8 weeks. Further details: scale not given: the % may be the effect or the level left.
In test [4] the test system is Mus musculus. The test can be described thus: Inhibition of DMBA-induced/TPA-promoted carcinogenesis in ICR mouse assessed as number of skin papillomas per mouse at 85 nmol administered 1 hr before TPA treatment measured after 14 weeks.
The test system of test [5] is Mus musculus. The test is described as follows: Inhibition of DMBA-induced/TPA-promoted carcinogenesis in ICR mouse assessed as mouse bearing papillomas at 85 nmol administered 1 hr before TPA treatment measured after 20 weeks. Further details: scale not given: the % may be the effect or the level left.

Each structure is given as a SMILES string. A value given as a limit tells only on which side of the number the result lay.

For the compound `CC(C)=CCc1c2c(c(O)c3c(=O)c(-c4ccc(O)c(O)c4)coc13)C=CC(C)(C)O2` [AURICULASIN], the Activity was 27% in the test on Mus musculus [1]; 4.9 in the test on Mus musculus [2]; 13% in the test on Mus musculus [3]; under 3 with Mus musculus [4]; 87% with Mus musculus [5].
